# According to article doi:10.1101/2021.04.08.439011v1 (biorxiv, 2021):
# Where two headings read alike, the source gives them in different places.
# Key:
# [1] = target: ABL1(H396P) (Homo sapiens, UniProt P00519, H396P); details: 0.1 µM, binder
# [2] = target: ERBB4 (Homo sapiens, UniProt Q15303); details: 0.1 µM; binder
# [3] = target: CDK8 (Homo sapiens, UniProt P49336); details: 0.1 µM; binder
# [4] = target: DDR2 (Homo sapiens, UniProt Q16832); details: 0.1 µM; binder
# [5] = target: MST3 (Homo sapiens, UniProt Q9Y6E0); details: 0.1 µM; binder
# [6] = target: MKK7 (Homo sapiens, UniProt O14733); details: 0.1 µM; binder
# [7] = target: MAP4K5 (Homo sapiens, UniProt Q9Y4K4); details: 0.1 µM; binder
# [8] = target: MST2 (Homo sapiens, UniProt Q13188); details: 0.1 µM; binder
# [9] = target: MARK4 (Homo sapiens, UniProt Q96L34); details: 0.1 µM; binder
# [10] = target: MATK (Homo sapiens, UniProt P42679); details: 0.1 µM; binder
# [11] = target: IKK-alpha (Homo sapiens, UniProt O15111); details: 0.1 µM; binder
# [12] = target: ASK2 (Homo sapiens, UniProt O95382); details: 0.1 µM; binder
# [13] = target: NDR2 (Homo sapiens, UniProt Q9Y2H1); details: 0.1 µM; binder
# [14] = target: LATS2 (Homo sapiens, UniProt Q9NRM7); details: 0.1 µM; binder
# [15] = target: ACVRL1 (Homo sapiens, UniProt P37023); details: 0.1 µM; binder
# [16] = target: SYK (Homo sapiens, UniProt P43405); details: 0.1 µM; binder
# [17] = target: CASK (Homo sapiens, UniProt O14936); details: 0.1 µM; binder
# [18] = target: CLK3 (Homo sapiens, UniProt P49761); details: 0.1 µM; binder
# [19] = target: CSNK1G1 (Homo sapiens, UniProt Q9HCP0); details: 0.1 µM; binder
# [20] = target: PIKFYVE (Homo sapiens, UniProt Q9Y2I7); details: 0.1 µM; binder
# [21] = target: EGFR(L858R,T790M) (Homo sapiens, UniProt P00533, L858R/T790M); details: 0.1 µM; binder
# [22] = target: GAK (Homo sapiens, UniProt O14976); details: 0.1 µM; binder
# [23] = target: CAMK2G (Homo sapiens, UniProt Q13555); details: 0.1 µM; binder
# [24] = target: DYRK2 (Homo sapiens, UniProt Q92630); details: 0.1 µM; binder
# [25] = target: MAP4K4 (Homo sapiens, UniProt O95819); details: 0.1 µM; binder
# [26] = target: SLK (Homo sapiens, UniProt Q9H2G2); details: 0.1 µM; binder
# [27] = target: ADCK3 (Homo sapiens, UniProt Q8NI60); details: 0.1 µM; binder
# [28] = target: FLT1 (Homo sapiens, UniProt P17948); details: 0.1 µM; binder
# [29] = target: RIPK2 (Homo sapiens, UniProt O43353); details: 0.1 µM; binder
# [30] = target: DRAK2 (Homo sapiens, UniProt O94768); details: 0.1 µM; binder
# [31] = target: MYLK (Homo sapiens, UniProt Q15746); details: 0.1 µM; binder
# Chain of GAK (O14976 whole entry): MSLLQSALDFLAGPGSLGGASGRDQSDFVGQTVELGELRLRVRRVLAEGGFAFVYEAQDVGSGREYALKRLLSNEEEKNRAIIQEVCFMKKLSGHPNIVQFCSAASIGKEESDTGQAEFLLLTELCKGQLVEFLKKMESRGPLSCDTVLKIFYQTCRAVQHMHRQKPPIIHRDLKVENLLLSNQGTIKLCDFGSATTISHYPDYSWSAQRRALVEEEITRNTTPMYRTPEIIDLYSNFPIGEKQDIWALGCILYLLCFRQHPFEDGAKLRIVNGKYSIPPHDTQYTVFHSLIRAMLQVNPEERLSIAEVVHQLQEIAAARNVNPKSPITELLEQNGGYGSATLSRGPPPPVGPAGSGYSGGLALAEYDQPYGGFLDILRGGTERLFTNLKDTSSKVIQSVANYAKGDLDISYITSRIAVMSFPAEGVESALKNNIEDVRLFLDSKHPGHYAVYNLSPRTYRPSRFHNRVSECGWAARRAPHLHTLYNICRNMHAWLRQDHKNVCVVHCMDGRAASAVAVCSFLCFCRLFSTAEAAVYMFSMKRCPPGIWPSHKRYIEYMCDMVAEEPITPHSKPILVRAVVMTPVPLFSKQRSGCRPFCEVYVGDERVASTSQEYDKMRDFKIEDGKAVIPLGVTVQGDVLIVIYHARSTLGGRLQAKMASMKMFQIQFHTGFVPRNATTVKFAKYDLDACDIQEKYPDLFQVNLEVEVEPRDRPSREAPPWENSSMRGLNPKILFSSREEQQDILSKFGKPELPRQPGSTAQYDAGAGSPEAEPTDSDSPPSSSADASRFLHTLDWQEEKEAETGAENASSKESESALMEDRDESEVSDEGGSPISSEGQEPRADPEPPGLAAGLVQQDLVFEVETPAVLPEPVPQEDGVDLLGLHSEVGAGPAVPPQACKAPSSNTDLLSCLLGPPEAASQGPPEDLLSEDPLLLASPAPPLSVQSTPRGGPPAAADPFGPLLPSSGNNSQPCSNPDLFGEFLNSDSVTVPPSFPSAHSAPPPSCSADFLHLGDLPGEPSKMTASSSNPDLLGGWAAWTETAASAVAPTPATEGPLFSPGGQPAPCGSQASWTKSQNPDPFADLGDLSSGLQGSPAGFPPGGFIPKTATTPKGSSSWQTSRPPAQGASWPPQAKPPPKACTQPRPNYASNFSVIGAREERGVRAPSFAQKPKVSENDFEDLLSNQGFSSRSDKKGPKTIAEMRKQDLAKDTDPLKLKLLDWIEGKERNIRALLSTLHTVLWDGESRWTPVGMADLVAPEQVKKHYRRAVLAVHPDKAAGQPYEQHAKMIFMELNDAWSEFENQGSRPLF
# Chain of RIPK2 (O43353 whole entry): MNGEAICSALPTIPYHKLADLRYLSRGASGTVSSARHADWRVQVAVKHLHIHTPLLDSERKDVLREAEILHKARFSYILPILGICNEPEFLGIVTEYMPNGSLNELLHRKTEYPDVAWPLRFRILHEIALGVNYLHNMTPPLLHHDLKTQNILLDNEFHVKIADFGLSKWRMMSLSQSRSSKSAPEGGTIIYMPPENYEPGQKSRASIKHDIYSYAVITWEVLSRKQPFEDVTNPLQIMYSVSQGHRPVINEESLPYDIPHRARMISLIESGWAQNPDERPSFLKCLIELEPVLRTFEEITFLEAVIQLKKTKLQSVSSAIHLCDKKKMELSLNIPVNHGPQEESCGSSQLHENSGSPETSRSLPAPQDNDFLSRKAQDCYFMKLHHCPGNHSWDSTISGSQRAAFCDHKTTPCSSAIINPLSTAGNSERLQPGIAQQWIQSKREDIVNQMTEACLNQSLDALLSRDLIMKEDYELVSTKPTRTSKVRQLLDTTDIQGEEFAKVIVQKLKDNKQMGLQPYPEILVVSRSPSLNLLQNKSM
# Chain of MST3 (Q9Y6E0 whole entry): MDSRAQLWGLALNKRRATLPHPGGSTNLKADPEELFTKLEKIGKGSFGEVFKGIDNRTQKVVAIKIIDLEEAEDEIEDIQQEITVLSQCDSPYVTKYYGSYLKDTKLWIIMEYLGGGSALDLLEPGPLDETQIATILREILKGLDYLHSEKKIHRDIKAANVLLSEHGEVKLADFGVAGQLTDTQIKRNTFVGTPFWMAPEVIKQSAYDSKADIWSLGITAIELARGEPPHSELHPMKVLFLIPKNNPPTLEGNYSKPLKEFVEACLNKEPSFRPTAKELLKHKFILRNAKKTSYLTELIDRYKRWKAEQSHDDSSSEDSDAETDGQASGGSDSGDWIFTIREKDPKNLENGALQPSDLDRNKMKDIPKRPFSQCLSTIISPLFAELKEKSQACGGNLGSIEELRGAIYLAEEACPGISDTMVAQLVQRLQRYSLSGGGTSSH
# Chain of ASK2 (O95382 whole entry): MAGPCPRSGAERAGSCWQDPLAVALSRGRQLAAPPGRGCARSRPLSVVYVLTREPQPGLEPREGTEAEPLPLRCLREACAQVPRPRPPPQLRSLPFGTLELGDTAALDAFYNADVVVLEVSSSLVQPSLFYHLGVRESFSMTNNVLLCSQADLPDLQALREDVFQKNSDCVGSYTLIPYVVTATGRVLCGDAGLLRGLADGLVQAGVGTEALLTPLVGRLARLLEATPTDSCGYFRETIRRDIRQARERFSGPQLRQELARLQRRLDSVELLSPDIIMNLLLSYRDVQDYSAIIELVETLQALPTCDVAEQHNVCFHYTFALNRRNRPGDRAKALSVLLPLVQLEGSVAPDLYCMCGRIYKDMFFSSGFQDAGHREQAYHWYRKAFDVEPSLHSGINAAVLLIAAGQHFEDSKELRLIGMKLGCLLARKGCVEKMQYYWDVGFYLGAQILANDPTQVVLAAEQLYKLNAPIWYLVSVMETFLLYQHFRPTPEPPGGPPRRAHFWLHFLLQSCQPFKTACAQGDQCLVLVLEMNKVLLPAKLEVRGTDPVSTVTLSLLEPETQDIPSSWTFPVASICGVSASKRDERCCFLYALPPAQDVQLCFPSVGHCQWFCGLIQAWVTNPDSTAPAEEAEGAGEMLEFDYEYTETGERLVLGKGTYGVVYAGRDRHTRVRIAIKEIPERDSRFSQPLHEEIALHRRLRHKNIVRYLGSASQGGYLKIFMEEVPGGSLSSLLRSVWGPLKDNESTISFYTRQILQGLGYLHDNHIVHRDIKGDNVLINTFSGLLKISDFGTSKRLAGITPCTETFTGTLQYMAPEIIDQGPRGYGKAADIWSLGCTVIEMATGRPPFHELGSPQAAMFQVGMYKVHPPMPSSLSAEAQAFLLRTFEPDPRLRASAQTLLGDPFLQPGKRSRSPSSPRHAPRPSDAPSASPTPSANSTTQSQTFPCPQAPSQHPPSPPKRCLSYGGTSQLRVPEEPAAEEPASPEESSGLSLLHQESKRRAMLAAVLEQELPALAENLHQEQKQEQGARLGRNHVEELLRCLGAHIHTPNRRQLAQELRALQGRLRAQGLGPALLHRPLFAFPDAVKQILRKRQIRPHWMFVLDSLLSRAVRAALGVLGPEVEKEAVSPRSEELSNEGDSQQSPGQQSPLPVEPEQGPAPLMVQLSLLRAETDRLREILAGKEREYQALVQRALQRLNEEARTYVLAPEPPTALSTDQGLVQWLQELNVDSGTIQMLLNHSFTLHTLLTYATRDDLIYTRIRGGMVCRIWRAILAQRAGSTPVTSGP
# Chain of MKK7 (O14733 whole entry): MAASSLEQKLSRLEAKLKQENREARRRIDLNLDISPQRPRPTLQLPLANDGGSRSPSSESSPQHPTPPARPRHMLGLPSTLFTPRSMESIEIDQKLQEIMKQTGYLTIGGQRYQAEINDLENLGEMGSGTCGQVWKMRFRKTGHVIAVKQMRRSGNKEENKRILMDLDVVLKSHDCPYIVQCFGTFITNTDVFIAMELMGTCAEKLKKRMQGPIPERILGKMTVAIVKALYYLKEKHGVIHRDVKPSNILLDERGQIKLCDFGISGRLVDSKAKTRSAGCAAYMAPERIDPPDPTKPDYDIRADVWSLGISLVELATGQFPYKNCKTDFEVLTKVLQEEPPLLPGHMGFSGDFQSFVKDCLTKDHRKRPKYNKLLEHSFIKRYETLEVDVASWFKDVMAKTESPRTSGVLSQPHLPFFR
# Chain of MARK4 (Q96L34 whole entry): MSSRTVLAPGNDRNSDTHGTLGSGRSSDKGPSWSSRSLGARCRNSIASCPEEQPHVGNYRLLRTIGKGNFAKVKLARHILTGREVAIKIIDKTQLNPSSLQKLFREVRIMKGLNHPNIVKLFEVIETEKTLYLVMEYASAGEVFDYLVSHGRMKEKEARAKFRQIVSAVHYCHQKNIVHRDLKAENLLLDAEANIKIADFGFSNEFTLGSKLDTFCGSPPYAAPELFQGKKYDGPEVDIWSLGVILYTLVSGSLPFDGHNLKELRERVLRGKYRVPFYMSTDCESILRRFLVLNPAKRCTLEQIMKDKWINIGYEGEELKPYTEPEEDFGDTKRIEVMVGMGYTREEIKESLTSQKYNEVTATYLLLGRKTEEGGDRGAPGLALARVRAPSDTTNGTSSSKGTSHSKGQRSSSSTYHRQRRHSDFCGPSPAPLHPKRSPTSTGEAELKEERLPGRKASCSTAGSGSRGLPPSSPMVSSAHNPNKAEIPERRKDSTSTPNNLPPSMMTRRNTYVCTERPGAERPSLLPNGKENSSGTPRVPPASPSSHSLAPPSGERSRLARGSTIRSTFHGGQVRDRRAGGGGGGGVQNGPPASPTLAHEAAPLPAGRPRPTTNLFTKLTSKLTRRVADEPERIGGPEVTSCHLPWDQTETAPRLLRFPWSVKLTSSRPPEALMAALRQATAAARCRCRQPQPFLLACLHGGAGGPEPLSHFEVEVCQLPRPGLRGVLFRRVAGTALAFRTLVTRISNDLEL
smiles,measurement,setting,value
"CNc1ncc2cc(-c3ccc(-c4cccc(C)n4)cc3Cl)c(=O)n(C[C@H]3OC[C@H](N)CO3)c2n1 [compound 6, G-5555]",Percent Control,[1]; nonphosphorylated,79%
same,Percent Control,[1]; phosphorylated,97%
same,Percent Control,[2],100%
same,Percent Control,[3],100%
same,Percent Control,[4],88%
same,Percent Control,[5],15%
same,Percent Control,[6],86%
same,Percent Control,[7],18%
same,Percent Control,[8],64%
same,Percent Control,[9],100%
same,Percent Control,[10],100%
same,Percent Control,[11],92%
same,Percent Control,[12],100%
same,Percent Control,[13],100%
same,Percent Control,[14],58%
same,Percent Control,[15],100%
same,Percent Control,[16],100%
same,Percent Control,[17],96%
same,Percent Control,[18],100%
same,Percent Control,[19],100%
same,Percent Control,[20],100%
same,Percent Control,[21],100%
same,Percent Control,[22],51%
same,Percent Control,[23],100%
same,Percent Control,[24],100%
same,Percent Control,[25],100%
same,Percent Control,[26],89%
same,Percent Control,[27],100%
same,Percent Control,[28],94%
same,Percent Control,[29],100%
same,Percent Control,[30],66%
same,Percent Control,[31],75%
